# Read-outs that look alike come from different tables or passages of the source.
# Experiments:
# [1] = system: GCPA007 T2.IV patient-derived AGCT cell line; assay: Cell viability drug screen (Cell Titer Glo 2.0, 72 h), mono- and combination therapy, GCPA007T2.IV; details: GCPA007T2IV
# Description: (§1) Cell lines were seeded at a density of 500 cells/well in 40 uL in 384-well plates (Corning, NY, USA) with the Multidrop™ cell dispenser (Thermo Fischer Scientific, Waltham, MA, USA) and sealed with Breathe-Easy® membrane (Sigma-Aldrich, St. Louis, MO, USA) to prevent evaporation. […] For each cell line, three biological repeats and two technical repeats each were performed in order to ensure the validity of the drug screens. […] Subsequently, 11 drugs and 12 drug combinations were dispensed and all wells (excluding blanks and non-DMSO control wells) were normalized to 1% DMSO using the HP Tecan D300e Digital Dispenser (Hewlett-Packard, Palo Alto, CA, USA). […] Next, the plates were covered with the Breathe-Easy membrane and incubated. After 72 h, the Multidrop dispensed 15 uL per well of Cell Titer Glo 2.0 (Thermo Fischer Scientific, Waltham, MA, USA) and plates were incubated in the dark for 10 min. After incubation, luminescence excitation was assessed in the Spectramax reader (Molecular Devices, San Jose, CA, USA) (top read, luminescence excitation at 500 nm) and raw data were processed in Microsoft Excel to subtract background luminescence. The Z-factor, a mathematical method used to quantify the quality of a drug screen based on the calculation of the separation band between the values of the positive and negative controls, was utilized to assess the quality of drug screens [54]. Screens with a Z-factor value of >0.5 were used for further analysis.
# (§2) Overall cell survival (in %) was plotted against the drug concentration range of each drug (in log10[μM]) using GraphPad Prism 8.3.1. Values that exceeded 100% survival (within +20% biological deviation) were normalized to 100% survival. Similarly, values below 0% cell survival (within −20% biological deviation) were normalized to 0% survival. Values exceeding this deviation were excluded. Dose–response curves were obtained using the model “log(inhibitor) vs. variable slope (normalized response)” to fit the dose–response curves and R^2 values were used to indicate how well the model fit the data (Supplementary Materials Figures S4 and S5). […] The IC50 values were calculated based on the Chou–Talalay method using Compusyn software [55]. For anti-hormonal treatment, mostly provided as maintenance therapy, we used IC10 values in addition to the IC50.
# (§3) In addition to the 11 monotherapies, 12 drug combinations were tested (Table 3) simultaneously with the individual drug treatments in the same 384-well plate. […] Synergy was evaluated using the mass action law, a systematic analysis assessing dose–response dynamics in a cost-effective manner [56, 57]. The combination index (CI) was used to indicate antagonistic (CI > 1) additive (CI = 1) and synergistic (CI < 1) effects [55].
# [2] = system: GCPA096 T1.II patient-derived AGCT cell line; assay: Cell viability drug screen (Cell Titer Glo 2.0, 72 h), mono- and combination therapy, GCPA096T1.II; details: GCPA096T1II
# Description: (§4) Cell lines were seeded at a density of 500 cells/well in 40 uL in 384-well plates (Corning, NY, USA) with the Multidrop™ cell dispenser (Thermo Fischer Scientific, Waltham, MA, USA) and sealed with Breathe-Easy® membrane (Sigma-Aldrich, St. Louis, MO, USA) to prevent evaporation. The SVOG-3e line was seeded at 1000 cells/well due to contact-dependent growth requirements. For each cell line, three biological repeats and two technical repeats each were performed in order to ensure the validity of the drug screens. […] Subsequently, 11 drugs and 12 drug combinations were dispensed and all wells (excluding blanks and non-DMSO control wells) were normalized to 1% DMSO using the HP Tecan D300e Digital Dispenser (Hewlett-Packard, Palo Alto, CA, USA). All drugs were applied in linear concentration ranges (Table 2), including 16 data points to enable combination drug testing at constant ratios (Table 3). Next, the plates were covered with the Breathe-Easy membrane and incubated. After 72 h, the Multidrop dispensed 15 uL per well of Cell Titer Glo 2.0 (Thermo Fischer Scientific, Waltham, MA, USA) and plates were incubated in the dark for 10 min. After incubation, luminescence excitation was assessed in the Spectramax reader (Molecular Devices, San Jose, CA, USA) (top read, luminescence excitation at 500 nm) and raw data were processed in Microsoft Excel to subtract background luminescence. […] Screens with a Z-factor value of >0.5 were used for further analysis.
# (§5) Overall cell survival (in %) was plotted against the drug concentration range of each drug (in log10[μM]) using GraphPad Prism 8.3.1. Values that exceeded 100% survival (within +20% biological deviation) were normalized to 100% survival. Similarly, values below 0% cell survival (within −20% biological deviation) were normalized to 0% survival. Values exceeding this deviation were excluded. Dose–response curves were obtained using the model “log(inhibitor) vs. variable slope (normalized response)” to fit the dose–response curves and R^2 values were used to indicate how well the model fit the data (Supplementary Materials Figures S4 and S5). […] The maximum plasma concentration (Cmax) and the plasma concentration at steady state (Css) were used as toxicity thresholds. The Cmax was utilized for drugs in which short, high-dosage time courses are required, while the Css was used for maintenance therapy regimes such as anti-hormonal treatment. […] The IC50 values were calculated based on the Chou–Talalay method using Compusyn software [55]. For anti-hormonal treatment, mostly provided as maintenance therapy, we used IC10 values in addition to the IC50.
# as §3
# [3] = system: GCPA007 T2.I patient-derived AGCT cell line; assay: Cell viability drug screen (Cell Titer Glo 2.0, 72 h), mono- and combination therapy, GCPA007T2.I; details: GCPA007T2I
# Description: as §4, §5, §3
# [4] = system: GCPA113 T1.II patient-derived AGCT cell line; assay: Cell viability drug screen (Cell Titer Glo 2.0, 72 h), mono- and combination therapy, GCPA113T1.II; details: GCPA113T1II
# Description: as §1, §2, §3
# [5] = system: GCPA108 T3.IV patient-derived AGCT cell line; assay: Cell viability drug screen (Cell Titer Glo 2.0, 72 h), mono- and combination therapy, GCPA108T3.IV; details: GCPA108T3IV
# Description: (§6) Cell lines were seeded at a density of 500 cells/well in 40 uL in 384-well plates (Corning, NY, USA) with the Multidrop™ cell dispenser (Thermo Fischer Scientific, Waltham, MA, USA) and sealed with Breathe-Easy® membrane (Sigma-Aldrich, St. Louis, MO, USA) to prevent evaporation. The SVOG-3e line was seeded at 1000 cells/well due to contact-dependent growth requirements. For each cell line, three biological repeats and two technical repeats each were performed in order to ensure the validity of the drug screens. […] Subsequently, 11 drugs and 12 drug combinations were dispensed and all wells (excluding blanks and non-DMSO control wells) were normalized to 1% DMSO using the HP Tecan D300e Digital Dispenser (Hewlett-Packard, Palo Alto, CA, USA). All drugs were applied in linear concentration ranges (Table 2), including 16 data points to enable combination drug testing at constant ratios (Table 3). Next, the plates were covered with the Breathe-Easy membrane and incubated. After 72 h, the Multidrop dispensed 15 uL per well of Cell Titer Glo 2.0 (Thermo Fischer Scientific, Waltham, MA, USA) and plates were incubated in the dark for 10 min. After incubation, luminescence excitation was assessed in the Spectramax reader (Molecular Devices, San Jose, CA, USA) (top read, luminescence excitation at 500 nm) and raw data were processed in Microsoft Excel to subtract background luminescence. The Z-factor, a mathematical method used to quantify the quality of a drug screen based on the calculation of the separation band between the values of the positive and negative controls, was utilized to assess the quality of drug screens [54]. Screens with a Z-factor value of >0.5 were used for further analysis.
# as §5, §3
# [6] = system: GCPA096 T1.V patient-derived AGCT cell line; assay: Cell viability drug screen (Cell Titer Glo 2.0, 72 h), mono- and combination therapy, GCPA096T1.V; details: GCPA096T1V
# Description: as §4, §5, §3
# AGCT cell lines = assay: Cell viability drug screen (72 h), summary over AGCT cell lines (12 patient-derived, with or without KGN); type: cell-based, human; details: median over AGCT cell lines; read-out: median IC50 in monotherapy
# Description: as §6, §5, §3
# [7] = system: KGN cells (AGCT cell line); assay: Cell viability drug screen (Cell Titer Glo 2.0, 72 h), mono- and combination therapy, KGN
# [8] = system: GCPA113 T1.III patient-derived AGCT cell line; assay: Cell viability drug screen (Cell Titer Glo 2.0, 72 h), mono- and combination therapy, GCPA113T1.III; details: GCPA113T1III
# Description: as §1, §2, §3
# [9] = system: GCPA028 T1.II patient-derived AGCT cell line; assay: Cell viability drug screen (Cell Titer Glo 2.0, 72 h), mono- and combination therapy, GCPA028
# [10] = system: GCPA096 T1.I patient-derived AGCT cell line; assay: Cell viability drug screen (Cell Titer Glo 2.0, 72 h), mono- and combination therapy, GCPA096T1.I; details: GCPA096T1I
# [11] = system: GCPA096 T1.XVI patient-derived AGCT cell line; assay: Cell viability drug screen (Cell Titer Glo 2.0, 72 h), mono- and combination therapy, GCPA096T1.XVI; details: GCPA096T1XVI
# Description: as §4, §5, §3
# [12] = cited from earlier work
# [13] = system: GCPA113 T1.I patient-derived AGCT cell line; assay: Cell viability drug screen (Cell Titer Glo 2.0, 72 h), mono- and combination therapy, GCPA113T1.I; details: GCPA113T1I
# Description: as §1, §2, §3
# [14] = system: GCPA096 T1.XV patient-derived AGCT cell line; assay: Cell viability drug screen (Cell Titer Glo 2.0, 72 h), mono- and combination therapy, GCPA096T1.XV; details: GCPA096T1XV
# Description: as §6, §5, §3
# [15] = in combination Carbo+Pacli+6thio2dG
# [16] = in combination Carbo+Pacli+Alpelisib
# [17] = read-out: IC50 in monotherapy, monotherapy
# [18] = drug within Carbo+Pacli+6thio2dG
# [19] = drug within Carbo+Pacli+Alpelisib
# [20] = read-out: IC50 in monotherapy, single drug, 72 h, unit not given (compared with Cmax/Css in uM)
structure (smiles),measurement,setting,value
N.N.O=C([O-])C1(C(=O)[O-])CCC1.[Pt+2] [Carboplatin],"DRI (Fa=0,5)",[1]; in combination Carbo+Pacli,2.73
same,"DRI (Fa=0,5)",[1]; [15],1.36
same,"DRI (Fa=0,5)",[1]; [16],37.92
same,IC50,[1]; [17],> 500 µM
same,"DRI (Fa=0,5)",[2]; drug within Carbo+Pacli,1.11
same,"DRI (Fa=0,5)",[2]; [18],2.3
same,"DRI (Fa=0,5)",[2]; [19],5.75
same,IC50,[2]; [20],168 µM
same,"DRI (Fa=0,5)",[3]; in Carbo+Pacli (10:1),4.425
same,"DRI (Fa=0,5)",[3]; in Carbo+Pacli+6thio2dG (10:1:1),2.54
same,"DRI (Fa=0,5)",[3]; in Carbo+Pacli+Alpelisib (10:1:2),230.67
same,IC50,"[3]; read-out: IC50 in monotherapy, cell viability 72 h after drug application",> 500 µM
same,"DRI (Fa=0,5)",[4]; drug within Carbo+Pacli,1.06
same,"DRI (Fa=0,5)",[4]; [18],1.33
same,"DRI (Fa=0,5)",[4]; [19],4.67
same,IC50,[4]; [17],276 µM
same,"DRI (Fa=0,5)",[5]; in Carbo+Pacli,1
same,"DRI (Fa=0,5)",[5]; in Carbo+Pacli+6thio2dG,0.7515
same,"DRI (Fa=0,5)",[5]; in Carbo+Pacli+Alpelisib,9.921
same,"DRI (Fa=0,5)",[6]; drug within Carbo+Pacli,1.19
same,"DRI (Fa=0,5)",[6]; [18],4.7
same,"DRI (Fa=0,5)",[6]; [19],17.09
same,IC50,[6]; [20],> 500 µM
same,IC50,AGCT cell lines,343 µM
same,"DRI (Fa=0,5)",[7]; drug within Carbo+Pacli,5.1507
same,"DRI (Fa=0,5)",[7]; [18],2.192
same,"DRI (Fa=0,5)",[7]; [19],26.6538
same,IC50,[7]; [17],297 µM
same,"DRI (Fa=0,5)",[8]; drug within Carbo+Pacli,1.76
same,"DRI (Fa=0,5)",[8]; [18],1.97
same,"DRI (Fa=0,5)",[8]; [19],35.75
same,IC50,[8]; [17],358 µM
same,"DRI (Fa=0,5)","[9]; GCPA028, in combination Carbo+Pacli",0.51
same,"DRI (Fa=0,5)","[9]; GCPA028, in combination Carbo+Pacli+6thio2dG",0.29
same,"DRI (Fa=0,5)","[9]; GCPA028, in combination Carbo+Pacli+Alpelisib",41.26
same,IC50,"[9]; read-out: IC50 in monotherapy, GCPA028, monotherapy",> 500 µM
same,"DRI (Fa=0,5)",[10]; in combination Carbo+Pacli,1.8
same,"DRI (Fa=0,5)",[10]; [15],2.92
same,"DRI (Fa=0,5)",[10]; [16],7.45
same,IC50,[10]; [17],257 µM
same,"DRI (Fa=0,5)",[11]; in Carbo+Pacli,0.64
same,"DRI (Fa=0,5)",[11]; in Carbo+Pacli+6thio2dG,0.59
same,"DRI (Fa=0,5)",[11]; in Carbo+Pacli+Alpelisib,2.39
same,IC50,[11]; [17],144 µM
same,Cmax/Css plasma (Log 10),"[12]; human maximum or steady state plasma concentration, log10 of the uM value",2.13 Log 10
same,Cmax/Css plasma (Log 10),"[12]; human plasma Cmax/Css, log10 of uM value, from phase I/II clinical trials",2.13 Log 10
same,Cmax/Css plasma (Log 10),"[12]; human plasma maximum/steady state concentration, ref phase I/II clinical trials",2.13 Log 10
same,Cmax/Css plasma (Log 10),"[12]; human plasma, maximum or steady state concentration, log10 of uM value",2.13
same,Cmax/Css plasma (Log 10),"[12]; human plasma, log10 of uM, phase I/II trials",2.13
same,Cmax,"[12]; read-out: Cmax (maximum drug concentration achieved in plasma), human plasma, phase I/II studies",135 µM
same,Cmax,"[12]; read-out: Cmax/Css plasma, human maximum or steady state plasma concentration",135 µM
same,Cmax,"[12]; read-out: Cmax/Css plasma, human plasma Cmax/Css, from phase I/II clinical trials",135 µM
same,Cmax,"[12]; read-out: Cmax/Css plasma, human plasma maximum/steady state concentration, ref phase I/II clinical trials",135 µM
same,Cmax,"[12]; read-out: Cmax/Css plasma, human plasma, maximum or steady state concentration",135 µM
same,Cmax,"[12]; read-out: Cmax/Css plasma, human plasma, phase I/II trials",135 µM
same,"DRI (Fa=0,5)",[13]; in Carbo+Pacli,1.12
same,"DRI (Fa=0,5)",[13]; in Carbo+Pacli+6thio2dG,2.55
same,"DRI (Fa=0,5)",[13]; in Carbo+Pacli+Alpelisib,32.56
same,IC50,[13]; [17],> 500 µM
same,"DRI (Fa=0,5)",[14]; drug within Carbo+Pacli,0.85
same,"DRI (Fa=0,5)",[14]; [18],2.35
same,"DRI (Fa=0,5)",[14]; [19],7.71
same,IC50,[14]; [20],265 µM
